Patent US20240209011A1, “HETEROAROMATIC PHOSPHONIUM SALTS FOR TREATING CANCER” (FLORATEK PHARMA S.A., priority 2021, published 2024)

Legend:
Assay type in all cases: cell-based
[1] = tested on: colon PDX; assay: Activity against colon PDX; details: for selectivity among colon PDX: colon PDX CO-04-0722 and CO-04-0700 versus CO-04-0701; for IC50: growth of colon PDX, Table 8
Description: (§1) PDX-derived cell cultures were obtained from tumors explanted from mice and isolated by mechanical and enzymatic dissociation. […] Cells were harvested and seeded in 96-wells plates at a density of 1.25 to 5×10^3 cells/well for cytotoxicity assays. Cells were incubated 48 h at 37° C. prior to addition of test molecules and vehicle (DMSO, 0.1%) at desired final concentrations. Cell viability was assessed before drugs' addition (To) and 5 days after test molecules addition by measuring ATP cell content using CellTiter-Glo® Luminescent Cell Viability Assay (Promega) according to the manufacturer's instructions. Luciferase activity was measured on a luminometer (PerkinElmer® EnVision™). Each concentration of compounds was tested in triplicate.
(§2) Viability was calculated as a percentage of ATP value compared to vehicle treated controls.
(§3) For PDX primary cell cultures, the tumour tissue was washed with PBS containing antibiotic-antimycotic and non-tumour tissue and necrotic tumour tissues were separated. The tumour tissue was transferred to a new dish and cut into 1-2 mm^3 fragments, resuspended in RPMI-1640 medium and centrifuged at 1,200 rpm for 6 min at room temperature. The pelleted material was resuspended with 15 mL of Tumour Cell Digestion Solution and incubated at 37° C. for 1 hour with agitation. Following further addition of media, centrifugation and passage through a […] cell strainer, the homogenous cell mixture was layered onto 15 mL of Ficoll-Paque PLUS in a 50 mL conical tube and centrifuged for 15 min at 1,600 rpm. The interface cells were collected, washed with media, separated by centrifugation at 1,200 rpm. The cell pellet was resuspended in serum free media supplemented with growth factors. 10,000 cells/wells were plated in a 96 well plate and incubated at 37° C., 5% CO2, 95% air and 100% relative humidity overnight. The cytotoxicity assay was conducted as above. IC50 values represent absolute IC50.

[2] = tested on: endometrial PDX; assay: Activity against endometrial PDX; details: endometrial PDX growth; text summary of Table 9
Description: as §1, §2, §3

[3] = tested on: lymphoma PDX; assay: Activity against lymphoma PDX; details: lymphoma PDX growth; Table 17
Description: as §1, §2, §3

[4] = tested on: skin melanoma PDX; assay: Activity against skin melanoma PDX; details: skin melanoma PDX growth; text summary of Table 22
Description: as §1, §2, §3

[5] = tested on: stomach PDX; assay: Activity against stomach PDX; details: stomach PDX growth; summary of Table 23
Description: as §1, §2, §3

[6] = tested on: lung carcinoma cell; assay: Activity against lung carcinoma cells; details: lung carcinoma cell growth; text summary of Tables 14A-14C
Description: Antitumor activity of the compounds and doxorubicin as a positive control was assessed by using the CellTiter-Blue Cell Viability Assay (Promega, #G8082) or CellTiter-Glow® Luminescent Cell Viability assay (Promega #G7572) according to the manufacturer's instructions. The compounds were tested at 5 or 6 concentrations in half-log increments (highest concentration 30 μM or 100 μM) in duplicate or triplicate well conditions.
Tumor cells were grown at 37° C. in a humidified atmosphere with 5% CO2 in RPMI 1640 or DMEM medium, supplemented with 10% (v/v) fetal calf serum and 50 μg/ml gentamicin for up to 20 passages, and were passaged once or twice weekly. Cells were harvested using TrypLE or PBS buffer containing 1 mM EDTA, and the percentage of viable cells is determined using a CASY Model TI cell counter (OMNI Life Science). Cells were harvested from exponential phase cultures, counted and plated in 96 well flat-bottom microtiter plates at a cell density depending on the cell line's growth rate (4,000-20,000 cells/well depending on the cell line's growth rate, up to 60,000 for hematological cancer cell lines) in RPMI 1640 or DMEM medium supplemented with 10% (v/v) fetal calf serum and 50 μg/ml gentamicin (140 μl/well). Cultures were incubated at 37° C. and 5% CO2 in a humidified atmosphere. After 24 h, 10 μl of test compounds or control medium were added, and left on the cells for another 72 h. Compounds were serially diluted in DMSO, transferred in cell culture medium, and added to the assay plates. The DMSO concentration was kept constant at <0.3% v/v across the assay plate. Viability of cells was quantified by the CellTiter-Blue® cell viability assay (Promega G8081) or CellTiter-Glow® Luminescent Cell Viability assay (Promega #G7572). Fluorescence (FU) was measured by using the EnSpire® multimode plate reader (Perkin Elmer) (excitation X=570 nm, emission λ=600 nm). Luminescence was measured with a microplate luminometer (Promega or PerkinElmer).
Sigmoidal concentration-response curves were fitted to the data points (test-versus-control, T/C values) obtained for each tumor model using 4 parameter non-linear curve fit (Charles River DRS Datawarehouse Software) or with GraphPad prism 5.02 software. IC50 values are reported as absolute IC50 values, being the concentration of test compound at the intersection of the concentration-response curves with T/C=50% Cell lines tested are presented in Table 1.

IC50 [6] [µM]	Structure (SMILES)	selectivity among colon PDX [1]	IC50 [1] [µM]	IC50 [2] [µM]	IC50 [3] [µM]	IC50 [4] [µM]	IC50 [5] [µM]
–	CCNC(=O)Oc1ccc2c(=O)cc(-c3ccc(CCCC[P+](c4ccccc4)(c4ccccc4)c4ccccc4)cc3)oc2c1O.[Br-] [SND126A, 4-[4-[7-(Ethylcarbamoyloxy)-8-hydroxy-4-oxo-chromen-2-yl]phenyl]butyltriphenylphosphonium bromide]	marked selectivity toward CO-04-0722 and CO-04-0700	< 20	< 20	< 5	< 10	< 20
< 20	O=c1cc(-c2ccc(CCCC[P+](c3ccccc3)(c3ccccc3)c3ccccc3)cc2)oc2c(O)c(O)ccc12 [SND118, 4-[4-(7,8-dihydroxy-4-oxo-chromen-2-yl)phenyl]butyltriphenyl-phosphonium bromide]	–	–	–	–	–	–
< 20	O=c1cc(-c2ccc(CCCC[P+](c3ccccc3)(c3ccccc3)c3ccccc3)cc2)oc2c3c(ccc12)OCO3.[Br-] [SND123, 4-[4-(6-oxo-[1,3]dioxolo[4,5-h]chromen-8-yl)phenyl]butyl-triphenylphosphonium bromide]	–	< 20	< 20	< 5	< 10	< 20
< 20	COc1c(O)ccc2c(=O)cc(-c3ccc(CCCC[P+](c4ccccc4)(c4ccccc4)c4ccccc4)cc3)oc12.[Br-] [SND140, (4-(4-(7-hydroxy-8-methoxy-4-oxo-4H-chromen-2-yl)phenyl)butyl)triphenylphosphonium bromide]	–	< 20	< 20	< 5	< 10	< 20

Structure (SMILES)	IC50 [6] [µM]	selectivity among colon PDX [1]	IC50 [1] [µM]	IC50 [2] [µM]	IC50 [3] [µM]	IC50 [4] [µM]	IC50 [5] [µM]
CCNC(=O)Oc1ccc2c(=O)cc(-c3ccc(CCCC[P+](c4ccccc4)(c4ccccc4)c4ccccc4)cc3)oc2c1OC(=O)NCC.[Br-] [SND124, 4-[4-[7,8-Bis(ethylcarbamoyloxy)-4-oxo-chromen-2-yl]phenyl]-butyltriphenylphosphonium bromide]	< 20	marked selectivity toward CO-04-0722 and CO-04-0700	< 20	< 20	< 5	< 10	< 20
CC(C)NC(=O)Oc1ccc2c(=O)cc(-c3ccc(CCCC[P+](c4ccccc4)(c4ccccc4)c4ccccc4)cc3)oc2c1O [SND127, 4-[4-[7-(Isopropylcarbamoyloxy)-8-hydroxy-4-oxo-chromen-2-yl]phenyl]butyltriphenylphosphonium bromide]	< 20	–	–	–	–	–	–
